Assays:
[1] = Octanol-water partition coefficient, log D of the compound at pH 7.4; assay type: physicochemical
Plasmodium falciparum = test: microbe, parasite or virus in culture; conditions: W2
Description: Antiplasmodial activity against Plasmodium falciparum W2 infected in human erythrocytes

Trypanosoma cruzi = test: Antitrypanosomal activity against Trypanosoma cruzi Tulahuen 2 infected in african green monkey Vero cells expressing red fluorescent protein after 3 days by fluorescence analysis; assay type: functional, organism-based; conditions: Tulahuen 2, Vero, 72 h
Vero [2] = test: Cytotoxicity against african green monkey Vero cells at 25 uM after 3 days; assay type: cell-based; conditions: chlorocebus sabaeus, 72 h
Vero [3] = test: Cytotoxicity against african green monkey Vero cells at 6.25 uM after 3 days; assay type: cell-based; conditions: chlorocebus sabaeus, 72 h

Row | Compound | logD [1] | IC50 (Plasmodium falciparum) [µM] | IC50 (Trypanosoma cruzi) [µM] | Activity (Vero [2]) | Activity (Vero [3])
1 | O=C1C=C(NCCCCCCCCCC[P+](c2ccc(F)cc2)(c2ccc(F)cc2)c2ccc(F)cc2)C(=O)c2ccccc21 | 1.67 | 0.292 | – | – | –
2 | O=C1C(O)=C([C@H]2CC[C@H](c3ccc(Cl)cc3)CC2)C(=O)c2ccccc21 [ATOVAQUONE] | – | 0.00028 | – | – | –
3 | COc1ccc([P+](CCCCCCCCCCC2=C(C)C(=O)c3ccccc3C2=O)(c2ccc(OC)cc2)c2ccc(OC)cc2)cc1 | 3.52 | 0.131 | – | – | –
4 | CCCC[P+](CCCC)(CCCC)CCCCCCCCCCN1C(=O)c2ccccc2C1=O | 3.68 | 0.194 | – | – | –
5 | CC1=C(CCCCCCCCCC[P+](c2ccccc2)(c2ccccc2)c2ccccc2)C(=O)c2ccccc2C1=O | 3.97 | 0.143 | 1.6 | Toxic | Toxic
6 | O=C1C=C(NCCCCCCCCCC[P+](C2CCCCC2)(C2CCCCC2)C2CCCCC2)C(=O)c2ccccc21 | 3.41 | 0.0944 | – | – | –
7 | O=C1c2ccccc2C(=O)N1CCCCCCCCCC[P+](C1CCCCC1)(C1CCCCC1)C1CCCCC1 | 4.5 | 0.141 | – | – | –
8 | CC1=C(CCCC[P+](c2ccccc2)(c2ccccc2)c2ccccc2)C(=O)c2ccccc2C1=O | 1.91 | 0.0187 | 2.7 | Non-toxic | Non-toxic
9 | O=C(Cn1ccnc1[N+](=O)[O-])NCc1ccccc1 [BENZNIDAZOLE] | – | – | – | Non-toxic | Non-toxic
10 | O=C1c2ccccc2C(=O)N1CCCC[P+](c1ccccc1)(c1ccccc1)c1ccccc1 | 0.01 | 3.5 | – | – | –
11 | O=C1c2ccccc2C(=O)N1CCCCCCCCCC[P+](Cc1ccccc1)(Cc1ccccc1)Cc1ccccc1 | 1.37 | 0.288 | – | – | –
12 | O=C1C=C(CCCCCCCCCC[P+](Cc2ccccc2)(Cc2ccccc2)Cc2ccccc2)C(=O)c2ccccc21 | 5.32 | 1.3 | 3 | Non-toxic | Non-toxic
13 | CCCC[P+](CCCC)(CCCC)CCCCCCCCCCC1=C(C)C(=O)c2ccccc2C1=O | 5.1 | 0.156 | 4 | Toxic | Non-toxic
14 | CC1=C(CCCCC[P+](C)(C)C)C(=O)c2ccccc2C1=O | 0.21 | 0.956 | – | – | –
15 | O=C1c2ccccc2C(=O)N1CCCCCCCCCC[P+](c1ccccc1)(c1ccccc1)c1ccccc1 | 1.67 | 0.173 | – | – | –
16 | CCCCCCCCCC[P+](c1ccccc1)(c1ccccc1)c1ccccc1 [DECYLTRIPHENYLPHOSPHONIUM] | – | 0.142 | – | – | –
17 | O=C1C=C(CCCCC[P+](c2ccccc2)(c2ccccc2)c2ccccc2)C(=O)c2ccccc21 | 1 | 0.157 | – | – | –
18 | CCCCCCCCCNC1=CC(=O)c2ccccc2C1=O | – | > 10 | 17.3 | Non-toxic | Non-toxic
19 | CC1=C(CCCCC[P+](c2ccccc2)(c2ccccc2)c2ccccc2)C(=O)c2ccccc2C1=O | 2.15 | 0.0483 | 5.4 | Toxic | Non-toxic
20 | CC1=C(CCCCCCCCCC[P+](C)(C)C)C(=O)c2ccccc2C1=O | 1.95 | 0.404 | – | – | –

Row | Compound | logD [1] | IC50 (Plasmodium falciparum) [µM] | IC50 (Trypanosoma cruzi) [µM] | Activity (Vero [2]) | Activity (Vero [3])
21 | O=C1c2ccccc2C(=O)N1CCCCCC[P+](c1ccccc1)(c1ccccc1)c1ccccc1 | 1.14 | 1.02 | – | – | –
22 | O=C1C=C(NCCCCCCCCCC[P+](Cc2ccccc2)(Cc2ccccc2)Cc2ccccc2)C(=O)c2ccccc21 | 2.8 | 0.215 | – | – | –
23 | Cc1ccccc1[P+](CCCCCCCCCCN1C(=O)c2ccccc2C1=O)(c1ccccc1C)c1ccccc1C | -0.75 | 0.143 | – | – | –
24 | O=C1C=C(NCC[P+](c2ccccc2)(c2ccccc2)c2ccccc2)C(=O)c2ccccc21 | -1.08 | 0.52 | – | – | –
25 | COc1ccc([P+](CCCCCCCCCCNC2=CC(=O)c3ccccc3C2=O)(c2ccc(OC)cc2)c2ccc(OC)cc2)cc1 | 4.37 | 0.134 | – | – | –
26 | CCCCCCCCCCC1=CC(=O)c2ccccc2C1=O | – | > 10 | 9.3 | Non-toxic | Non-toxic
27 | CCCC[P+](c1ccccc1)(c1ccccc1)c1ccccc1 [BUTYLTRIPHENYLPHOSPHONIUM] | – | 3.5 | – | – | –
28 | O=C1C=C(NCCCCCCCCCC[P+](c2ccccc2)(c2ccccc2)c2ccccc2)C(=O)c2ccccc21 | 3.6 | 0.114 | 1.6 | Toxic | Toxic
29 | O=C1C=C(CCCCCCCCCC[P+](c2ccc(F)cc2)(c2ccc(F)cc2)c2ccc(F)cc2)C(=O)c2ccccc21 | 1.66 | 0.846 | – | – | –
30 | CC1=C(CCCCCCCCCC[P+](c2ccccc2C)(c2ccccc2C)c2ccccc2C)C(=O)c2ccccc2C1=O | 3.58 | 0.143 | – | – | –
31 | CCCCCCCCCCN1C(=O)c2ccccc2C1=O | – | > 10 | – | – | –
32 | C[P+](C)(C)CCCCCCCCCCN1C(=O)c2ccccc2C1=O | -0.08 | > 10 | – | – | –
33 | CC1=C(C[P+](c2ccccc2)(c2ccccc2)c2ccccc2)C(=O)c2ccccc2C1=O | 1.89 | 0.543 | – | – | –
34 | CC1=C(CCCCCCCCCC[P+](Cc2ccccc2)(Cc2ccccc2)Cc2ccccc2)C(=O)c2ccccc2C1=O | 6.64 | 0.212 | 3.7 | Toxic | Non-toxic
35 | O=C1c2ccccc2C(=O)N1CCCCCCCCCC[P+](c1ccc(F)cc1)(c1ccc(F)cc1)c1ccc(F)cc1 | 2.13 | 0.346 | – | – | –
36 | O=C1C=C(CCCCCCCCCC[P+](c2ccccc2)(c2ccccc2)c2ccccc2)C(=O)c2ccccc21 | 4.08 | 0.259 | – | – | –
37 | COc1ccc([P+](CCCCCCCCCCN2C(=O)c3ccccc3C2=O)(c2ccc(OC)cc2)c2ccc(OC)cc2)cc1 | 3.19 | 0.134 | – | – | –
38 | C[C@@H]1CC[C@H]2[C@@H](C)C(=O)O[C@@H]3O[C@@]4(C)CC[C@@H]1[C@]32OO4 [ARTEMISININ] | – | 0.00731 | – | – | –
39 | CC1=C(CCCCCCCCCC[P+](C2CCCCC2)(C2CCCCC2)C2CCCCC2)C(=O)c2ccccc2C1=O | 3.64 | 0.134 | 2.4 | Toxic | Non-toxic

From ChEMBL document CHEMBL2016476, “Phosphonium lipocations as antiparasitic agents” (Bioorg Med Chem Lett, 2012)
